These results are taken from patent US6184231A, “3-substituted-4-arylquinolin-2-one derivatives as potassium channel modulators” (priority 1999, dated 2001).

For the first test, the system named is cortical infarct volume. Kind of test: permanent focal ischemia, middle cerebral artery occlusion (MCAO) model. The test is classed as in vivo, spontaneously hypertensive rat. Conditions: 0.003 mg/kg i.v. single bolus 2 hours after MCAO; infarct measured 24 hours after MCAO; vs vehicle-treated control. From the text:
To determine the ability of these compounds to reduce cell loss resulting from neuronal ischemia, a standard rodent model of permanent focal ischemia, involving occlusion of the middle cerebral artery in the spontaneously hypertensive rat (middle cerebral artery occlusion (MCAO) model) was employed [Tamura, A., et al., Journal of Cerebral Blood Flow and Metabolism, Volume 1, 53-60, (1981)].
Selected compounds have been evaluated in the focal stroke model involving permanent MCAO in the spontaneously hypertensive rat. This procedure results in a reliably large neocortical infarct volume that is measured by means of vital dye exclusion in serial slices through the brain 24 hours after MCAO. In the present test, compounds were administered using an intravenous route of administration at 2 hours after occlusion.
`COc1ccc(Cl)cc1-c1c(CCO)c(=O)[nH]c2ccc(C(F)(F)F)cc12` [Example 21, 4-(5-Chloro-2-methoxyphenyl)-3-(2-hydroxyethyl)-6-trifluoromethyl-2(1H)-quinolinone]: the “reduction of cortical infarct volume” value is “about 25%”.

For a further test, the system named is cloned mammalian (mSlo or hSlo) BK channels. Kind of test: BK-mediated outward current, two-electrode voltage clamp in Xenopus oocytes. The format is cell-based. Conditions: at 20 μM; percent increase over BK current in controls; IBTX-sensitive current; at least 5 oocytes. As to the method:
The ability of compounds described in the present invention to open BK channels and increase whole-cell outward (K^+) BK-mediated currents was assessed under voltage-clamp conditions by determining their ability to increase cloned mammalian (mSlo or hSlo) BK --mediated outward current heterologously expressed in Xenopus oocytes [Butler, A., et al., Science, 261: 221-224 (1993); and Dworetzky, S. I., et al., Mol. Brain Res., 27: 189-193 (1994)]. The two BK constructs employed represent nearly structurally identical homologous proteins, and have proven to be pharmacologically identical in our tests. To isolate BK current from native (background, non-BK) current, the specific and potent BK channel-blocking toxin iberiotoxin (IBTX) [Galvez, A., et al., J. Biol. Chem., 265: 11083-11090 (1990)] was employed at a supramaximal concentration (50 nM). The relative contribution of BK channels current to total outward current was determined by subtraction of the current remaining in the presence of IBTX (non-BK current) from the current profiles obtained in all other experimental conditions (control, drug, and wash). […] All compounds were tested in at least 5 oocytes and are reported at the single concentration of 20 μM; the effect of the selected compounds of Formula I on BK current was expressed as the percent of control IBTX-sensitive current and is listed in Table I. Recordings were accomplished using standard two-electrode voltage clamp techniques [Stuhmer, W., et al., Methods in Enzymology, Vol. 207: 319-339 (1992)]; voltage-clamp protocols consisted of 500-750 ms duration step depolarizations from a holding potential of -60 mV to +140 mV in 20 mV steps. The experimental media (modified Barth's solution) consisted of (in mM): NaCl (88), NaHCO3 (2.4), KCl (1.0), HEPES (10), MgSO4 (0.82), Ca(NO3)2 (0.33), CaCl2 (0.41); pH 7.5.
(Two-electrode voltage clamp is typically applied to oocytes expressing channels or transporters.)
For `COc1ccc(Cl)cc1-c1c(CO)c(=O)[nH]c2cc(C(F)(F)F)ccc12` [Example 3, 4-(5-Chloro-2-methoxyphenyl)-3-(hydroxymethyl)-7-(trifluoromethyl)-2(1H)-quinolinone], the “BK Current” value was “+ (+ = 100-200%)”.
The same measure, in the same setting: the same measure for `COc1ccc(Cl)cc1-c1c(/C=C(/F)CO)c(=O)[nH]c2ccc(C(F)(F)F)cc12` [Example 18, (E)-4-(5-Chloro-2-methoxyphenyl)-3-(2-fluoro-3-hydroxy-1-propenyl)-6-(trifluoromethyl)-2(1H)-quinolinone]: “+ (+ = 100-200%)”.
`O=c1[nH]c2ccc(C(F)(F)F)cc2c(-c2cc(Cl)ccc2O)c1/C=C(\F)CO` [Example 17, (Z)-4-(5-Chloro-2-hydroxyphenyl)-3-(2-fluoro-3-hydroxy-1-propenyl)-6-(trifluoromethyl)-2(1H)-quinolinone]: the “BK Current” value is recorded as “+ (+ = 100-200%)”.
Take `COc1ccc(Cl)cc1-c1c(C=NO)c(=O)[nH]c2ccc(C(F)(F)F)cc12` [Example 39, 4-(5-Chloro-2-methoxyphenyl)-1,2-dihydro-2-oxo-6-(trifluoromethyl)-3-quinolinecarboxaldehyde oxime]: the “BK Current” value was “++ (++ = >200%)”.
With `Nc1ccc(-c2c(-c3cc(Cl)ccc3O)c3cc(C(F)(F)F)ccc3[nH]c2=O)cc1` [Example 32, 4-(5-Chloro-2-hydroxyphenyl)-3-(4-aminophenyl)-6-(trifluoromethyl)-2(1H)-quinolinone], the “BK Current” value is on record as “++ (++ = >200%)”.
As to `O=c1[nH]c2ccc(C(F)(F)F)cc2c(-c2cc(Cl)ccc2O)c1CO` [Example 9, 4-(5-Chloro-2-hydroxyphenyl)-3-(hydroxymethyl)-6-(trifluoromethyl)-2(1H)-quinolinone], the “BK Current” value is given as “++ (++ = >200%)”.
Consider `O=c1[nH]c2ccc(C(F)(F)F)cc2c(-c2cc(Cl)ccc2O)c1CCO` [Example 20, 4-(5-Chloro-2-hydroxyphenyl)-3-(2-hydroxyethyl)-6-(trifluoromethyl)-2(1H)-quinolinone], for which the “BK Current” value was “++ (++ = >200%)”.
In the case of `COc1ccc(Cl)cc1-c1c(CCO)c(=O)[nH]c2ccc(C(F)(F)F)cc12` [Example 21, 4-(5-Chloro-2-methoxyphenyl)-3-(2-hydroxyethyl)-6-trifluoromethyl-2(1H)-quinolinone], the “BK Current” value is reported as “++ (++ = >200%)”.
Take `COc1ccc(Cl)cc1-c1c(CCCO)c(=O)[nH]c2ccc(C(F)(F)F)cc12` [Example 8, 4-(5-Chloro-2-methoxyphenyl)-3-(3-hydroxypropyl)-6-(trifluoromethyl)-2(1H)-quinolinone]: the “BK Current” value is “++ (++ = >200%)”.
Regarding `O=c1[nH]c2ccc(C(F)(F)F)cc2c(-c2cc(Cl)ccc2O)c1Cc1ccc(O)cc1` [Example 30, 4-(5-Chloro-2-hydroxyphenyl)-3-[(4-hydroxyphenyl)methyl]-6-(trifluoromethyl)-2(1H)-quinolinone], the “BK Current” value is on record as “++ (++ = >200%)”.
As for `COc1ccc(Cl)cc1-c1c(C=O)c(=O)[nH]c2ccc(C(F)(F)F)cc12` [Example 4, 4-(5-Chloro-2-methoxyphenyl)-1,2-dihydro-2-oxo-6-(trifluoromethyl)-3-quinolinecarboxaldehyde], the “BK Current” value is on record as “+ (+ = 100-200%)”.
Regarding `Cc1c(-c2cc(Cl)ccc2O)c2cc(C(F)(F)F)ccc2[nH]c1=O` [Example 34, 4-(5-Chloro-2-hydroxyphenyl)-3-methyl-6-(trifluoromethyl)-2(1H)-quinolinone], the “BK Current” value is on record as “++ (++ = >200%)”.

The next test relates to intracavernous pressure (ICP/BP) response. In words: in vivo model on erectile function, cavernous nerve stimulation. The conditions noted are these: 0.1-1.0 mg/kg i.v., anesthetized rats. Set-up: species or system rat. The text has this: The in vivo model on erectile function is described fully in the scientific literature [Rehman, J., Chenven, E., Brink, P. Peterson, B., Wolcott, B., Wen, Y. P., Melman, A., Christ, G.: Diminished neurogenic but not pharmacological erections in the 2- to 3-month experimentally diabetic F-344 rat. Am. J. Physiol. 272: H1960-H1971, (1997)]. Briefly, rats (250-600 g) were anesthetized using sodium pentobarbital, the abdomen opened and the cavernous nerve identified. A pressure catheter was placed in the right corpus cavernosum (crus) to measure intracavernous pressure (ICP). A second catheter was introduced into the carotid artery to measure blood pressure. Test compound (0.1, 0.3 and 1 mg/kg iV.) or vehicle (PEG 400) was given via a catheter placed into the jugular vein.
Control intracavernous pressure responses were elicited by electrically stimulating the cavernous nerve via bipolar stimulating electrodes (20 Hz, 0.22 ms pulse width). Stimulus amplitude (0.2-20 mA) was adjusted to produce a submaximal intracavernous pressure response (typically 0.2 or 0.5 mA). A series of control intracavernous pressure responses were then obtained using a constant stimulus amplitude. Test compound or vehicle was then administered (200 μl i.v bolus) and the cavernous nerve was restimulated to evoke a cavernous pressure response at various times post-drug administration. […]
Turning to `O=c1[nH]c2ccc(C(F)(F)F)cc2c(-c2cc(Cl)ccc2O)c1CCO` [Example 20, 4-(5-Chloro-2-hydroxyphenyl)-3-(2-hydroxyethyl)-6-(trifluoromethyl)-2(1H)-quinolinone], the “ICP/BP ratio elicited by sub-maximal stimulation of the cavernous nerve” value is given as “significant increase”.
